Key:
[1] = target: T1, DOR (Homo sapiens, UniProt P41143); assay: [35S]GTPγS-binding assay, DOR-expressing CHO cell membranes; format: biochemical
T1 construct: expressed in transfected cells; host or cells: CHO cells (membranes)
Method: [^35S]-GTPγS-Binding Assays using DOR- or KOR-Expressing CHO Cell Lines: Cell membranes (10 μg protein) were incubated with 10 μM GDP and 0.1 nM [^35S]-GTPγS in assay buffer in the presence and absence of varying concentrations of BNAP, 3 μM SNC80 (standard full agonist at DOR) or 3 μM U50,488H (standard full agonist at KOR) for 90 min at 30° C. Nonspecific binding was determined with 10 μM unlabeled GTPγS. The reaction was terminated and bound radioactivity determined as described above and previously.^9
(§1) All samples were assayed in triplicate and repeated at least twice for a total of 3 independent determinations. Results were reported as mean values±SEM. Concentration-effect curves were fit by nonlinear regression to a one-site binding model, using GraphPad Prism software, to determine EC50 and Emax values. IC50 values were obtained from Hill plots and analyzed by linear regression using Microsoft Excel software. Binding Ki values were determined from IC50 values using the Cheng-Prusoff equation: Ki=IC50/l+([L]/KD), where [L] is the concentration of […] and KD is the KD of the radioligand.

[2] = target: T2, kappa opioid receptor (KOR) (Homo sapiens, UniProt P41145); assay: Competitive radioligand binding, KOR ([3H]nor-BNI)
T2 construct: expressed in transfected cells; host or cells: CHO cells (membranes)
Method: (§2) The details of the Radioligand Binding and Functional Studies that were used were described previously.^19 Chinese hamster ovarian (CHO) cell lines were used as monoclonal opioid receptor expressing cells. The μ, δ, and κ opioid receptors were labeled with [^3H]naloxone, ^3H-naltrindole ([^3H]NTI) and ^3H-nor-Binaltorphimine ([^3H]norBNI). The opioid receptor expressing cell membranes were incubated with the radioligands at different concentrations of the drug under investigation at 30° C. for 1 h. With the absence and presence of 10 μM naltrexone, specific binding was got as the difference in binding obtained. The specific binding of the drugs to the radioligand was calculated from data using linear regression analysis of Hill plots.
as §1

[3] = system: mouse distal colon circular muscle; assay: Colon circular muscle isometric tension recordings, distal colon
Method: Mice were euthanized by cervical dislocation. The colon was dissected, flushed of its contents, and trimmed of mesentery. […] The tissues, 0.5 cm in length, were suspended vertically along the axis of the circular muscle with a metal triangle tied to a hook under 1 g of passive tension in 15 mL siliconized organ baths.
Data are presented as the mean±S.E.M, values of P≤0.05 were considered significant.

[4] = system: morphine antinociception; assay: Warm water tail immersion (tail flick) test; format: in vivo, Swiss Webster mice
Method: Male Swiss Webster mice (Harlan Laboratories, Indianapolis, Ind.) weighing 25-30 g were housed 5 to a cage in animal care quarters and maintained at […] on a 12 h light-dark cycle. Food and water were available ad libitum. The mice were brought to a test room (22±2° C., 12 h light-dark cycle), marked for identification and allowed 18 h to recover from transport and handling. Protocols and procedures were approved by the Institutional Animal Care and Use Committee (IACUC) at Virginia Commonwealth University Medical Center and comply with the recommendations of the IASP (International Association for the Study of Pain).
The warm water tail-immersion test was performed according to previously described methods using a water bath with the temperature maintained at 56±0.1° C.^20 Briefly, before giving the mice injections, a baseline (control) latency was determined. Only mice with a control reaction time of 2 to 4 s were used. The average baseline latency for these experiments was 3.0±0.1 s. The test latency after drug treatment was assessed at the appropriate time, and a 10 s maximal cutoff time was imposed to prevent tissue damage. Antinociception was quantified according to established procedures as the percentage of maximum possible effect (% MPE), which was calculated as follows: % MPE=[(test latency−control latency)/(10−control latency)]×100.^21 Percentage MPE was calculated for each mouse, using at least six mice per group.
Intracerebroventricular (ICV) injections were performed as described previously.^22 Mice were anesthetized with 2.5% isoflurane and a horizontal incision was made in the scalp. A needle was inserted to a depth of 3 mm into the lateral ventrical (2 mm rostral and 2 mm lateral at a 45° angle from the bregma). At intervals, 5 μL injections of drug or vehicle were made using this guide insertion to the same depth using a needle with a guard in nonanesthetized animals.^22, 23 Animals underwent the anesthetized surgery in the morning of the experiment and were then injected with drug at intervals indicated in the text without additional anesthesia. Immediately after testing, the animals were euthanized to minimize any type of distress, according to IACUC guidelines.

[5] = target: T3, mu opioid receptor (MOR) (Mus musculus, UniProt P42866); assay: Competitive radioligand binding, MOR ([3H]naloxone); conditions: mean ± SEM of three experiments
T3 construct: expressed in transfected cells; host or cells: CHO cells (membranes)
Method: as §2, §1

[6] = target: T4, delta opioid receptor (DOR) (Homo sapiens, UniProt P41143); assay: Competitive radioligand binding, DOR ([3H]NTI); conditions: read-out: Ki (nM) ± SEM
T4 construct: expressed in transfected cells; host or cells: CHO cells (membranes)
Method: as §2, §1

Compound: O=C(N[C@@H]1CC[C@@]2(O)[C@H]3Cc4ccc(O)c5c4[C@@]2(CCN3CC2CC2)C1O5)c1cc[n+](Cc2ccccc2)cc1 (some centres unmarked) [BNAP]
- EC50 ([1]; 35S-GTP[γS]): 108 ± 69 nM
- % max of agonist ([1]; Emax relative to full agonist SNC80): 9.2±2.2%
- Ki ([2]; KOR, [3H]nor-BNI, read-out: Ki (nM) ± SEM): 3.46 ± 0.05 nM
- Selectivity (κ/μ) ([2]; ratio of Ki KOR/MOR): 4.6
- inhibition of morphine-induced contractions ([3]; 1 nM antagonist, distal colon): neither NAP nor BNAP showed significant inhibition of morphine-induced contractions
- antagonism of morphine effects ([3]; 10 nM antagonist, distal colon): neither NAP nor BNAP showed significant antagonism of morphine effects
- morphine pD2 in presence of antagonist ([3]; 100 nM antagonist, distal colon (naive 6.0)): 5.2
- contractions induced by compound alone ([3]; up to 30 μM, distal colon preparation): Neither BNAP nor NAP alone at concentrations up to 30 μM induced contractions
- antinociception of compound alone ([4]; 1.0 μg/5 μL ICV, compared to morphine alone): did not produce significant antinociception
- antagonism of morphine antinociception ([4]; 10 mg/kg s.c., any morphine dose tested): did not significantly antagonize morphine antinociception
- antinociceptive effect of compound alone ([4]; 10 mg/kg s.c., warm water tail flick, mice): did not produce significant antinociceptive effects
- dose giving complete reversal of morphine antinociception ([4]; ICV, dose dependent reversal): 0.3 μg/5 μL
- Ki [5]: 0.76 ± 0.09 nM
- Ki [6]: 722 ± 65 nM
